The values below come from patent US8946405B2, “Controlled release from solid supports” (Prolynx LLC, priority 2010, dated 2015).

Data set [1] is described as follows: Release of Nε-2,4-dinitrophenyl-L-lysine from DNP-Lys carbamates (β-elimination), HPLC. It counts as physicochemical. The conditions noted are these: after 5 days at 37° C. and pH 7.4. As to the method: A series of linker scaffolds having a range of functional groups as potential pKa modulators (substituted aromatics, ketones, nitriles, sulfones) were designed, prepared and linked via carbamate bonds to Ne-2,4-dinitrophenyl-L-lysine (Ne-DNP-Lys) for evaluation of release rates. DNP-Lys was chosen as the released moiety as is water soluble and is a strong chromophore to permit HPLC-UV analysis.
The rates of release of Nε-2,4-dinitrophenyl-L-lysine from these compounds were determined at pH 7.4 or pH 8.3, 37° C., by HPLC analysis. Kinetic analyses of the release reactions were performed by HPLC (C18; linear MeOH/water+0.5% HOAc gradient) using a UV/vis monitor at 350 nm. The areas under the Lys(DNP) (“P”) and starting material (“S”) peaks were integrated to determine extent of reaction (“R”) as R=P/(S+P). Reaction rates were calculated from the slope the line obtained by linear regression analysis of a plot of ln(1-R) versus time.

A short description of data set [2]: Hydrolysis of carbamate in 50% human serum. It counts as in vitro ADME. To be noted: after 1 week at 37° C. The text has this:
In general, compared to C—H, a) electron withdrawing groups at R^1 increase the rate; b) alkyl groups at R^5 increase the rate; and c) aryl moieties at R^5 decrease the rate.

Some results are limits rather than exact numbers.

`O=C(N[C@@H](CCCCNc1ccc([N+](=O)[O-])cc1[N+](=O)[O-])C(=O)O)OCc1ccccc1` [O-benzyl-N—(Nε-2,4-dinitrophenyl-L-lysine)-carbamate]: in data set [1], the “cleavage (estimated detection limit)” value is on record as < 0.25% and the “release of Nε-2,4-dinitrophenyl-L-lysine” value is listed as “no observable release”. The “hydrolysis in 50% human serum” value in data set [2] is given as “no detectable hydrolysis”.
